Data from patent EP4768484A1, “HETEROCYCLIC FUSED RING COMPOUND, AND COMPOSITION AND USE THEREOF” (Shenzhen TargetRx, Inc., priority 2023, dated 2025).

Legend:
Type in all cases: cell-based
K562 cells = test: Cell growth inhibitory activity assay (CellTiter-Glo), K562 cells; settings: Homo sapiens, 72 h, CTG cell viability
In short: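 Growth inhibition of human K562 cells, sourced from Nanjing Kebai (CBP60529), was assessed with Promega's CellTiter-Glo kit, which measures viability through ATP quantification. Log-phase cells went into the inner wells of 96-well plates, with PBS in edge wells, incubated overnight at 37 °C and 5% CO2, then exposed to serially diluted compound for 72 h.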

Ba/F3 parental cells = test: Cell growth inhibitory activity assay (CellTiter-Glo), Ba/F3 parental cells; settings: Mus musculus, BaF3, 72 h, CTG cell viability, read-out: IC50 Ba/F3 BCR-ABL1 Parental
In short: (§1)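 Growth inhibition is measured in engineered Ba/F3 cells carrying mutant human BCR-ABL1 and in parental Ba/F3. Compounds in dilution series are applied for 72 h, then cellular ATP is quantified with CellTiter-Glo, normalised using a T0 baseline plate, and IC50 derived by nonlinear regression.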

Ba/F3 BCR-ABL1 T315M = target: T1, Ba/F3 BCR-ABL1 T315M (Homo sapiens, UniProt P00519+P11274, T315M); test: Cell growth inhibitory activity assay (CellTiter-Glo), Ba/F3 BCR-ABL1 T315M cells; settings: 72 h, CTG cell viability
T1 construct: BCR (N-terminal fusion partner of the oncoprotein); expressed in transfected cells; host or cells: Ba/F3 (lentiviral transduction, monoclonal line)
Method: In this assay, the Celltiter-Glo (CTG) kit provided by Promega was used, and it is a homogeneous cell viability assay method. The cell viability of cultured cells was measured by quantifying ATP. K562 cells were purchased from Nanjing Kebai, product number CBP60529; Ba/F3 parental cells were purchased from RIKEN BRC, product number RCB0805; other cells containing BCR-ABL1 WT, BCR-ABL1 T315I, BCR-ABL1 T315M, BCR-ABL1 Y253H/E255K, BCR-ABL1 E255V/T3151, BCR-ABL1 A424T, BCR-ABL1 A337V, BCR-ABL1 P465S, BCR-ABL1 V468F, and BCR-ABL1 I502L were all monoclonal engineered cell lines obtained by transducting Ba/F3 parental cells with the lentivirus plasmids containing WT or corresponding mutated BCR-ABL1.
The steps of cell viability assay are as follows: • a) Cells in logarithmic growth phase were collected. Cell suspension was prepared and the cells were counted. Concentration of the cells was calculated. • b) The cell suspension was diluted to the required concentration and then added to the middle wells of a 96-well plate, and PBS was added to the edge wells. The wells with no cells and only culture medium were used as blank controls. • c) In addition to the cell plate used for compound analysis, another 96-well plate was prepared as a T0 plate, and 3-6 blank wells and 3-6 cell wells were added. The next day, CTG was used to test the cell viability as the T0 viability value of the cells. • d) The cell plate was incubated at 37 °C in a 5% CO2 incubator overnight. • e) The next day, each concentration of a compound subjected to a gradient dilution was added, and the cell plate was incubated at 37 °C in a 5% CO2 incubator for 72 h. The wells with no compound and only 0.5% DMSO were used as positive controls for cell growth. • f) CTG reagent (CellTiter-Glo kit) was added according to the manufacturer's instructions to test the cell viability value. • g) The plate was read using Biotek cytation3.0 microplate reader and the data were exported. • h) IC50 was calculated using GraphPad Prism 7.0 software.
The IC50 (half-maximal inhibitory concentration) of the compound was obtained using the following nonlinear fitting formula: Y = Bottom + (Top−Bottom)/(1+10^(∧)((LogIC50−X)*HillSlope)) [formula] • X: Log value of the compound concentration • Y: Inhibition rate (% inhibition) • Top: Maximum response • Bottom: Baseline response • HillSlope: Slope of the curve
The formula for calculating cell inhibition rate (inhibition rate %) was: [formula]

Ba/F3 BCR-ABL1 WT = target: T2, Ba/F3 BCR-ABL1 WT (Homo sapiens, UniProt P00519+P11274); test: Cell growth inhibitory activity assay (CellTiter-Glo), Ba/F3 BCR-ABL1 WT cells; settings: 72 h, CTG cell viability
T2 construct: BCR (N-terminal fusion partner of the oncoprotein); expressed in transfected cells; host or cells: Ba/F3 (lentiviral transduction, monoclonal line)
In short: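 Compound dilutions applied for 72 h (37 °C, 5% CO2) to overnight-plated Ba/F3 cells, parental or engineered to express WT/mutant BCR-ABL1. ATP-based CellTiter-Glo luminescence read, referenced to day-0 viability and 0.5% DMSO wells; IC50 fitted by four-parameter logistic curve.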

Ba/F3 BCR-ABL1 T315I = target: T3, Ba/F3 BCR-ABL1 T315I (Homo sapiens, UniProt P00519+P11274, T315I); test: Cell growth inhibitory activity assay (CellTiter-Glo), Ba/F3 BCR-ABL1 T315I cells; settings: 72 h, CTG cell viability
T3 construct: BCR (N-terminal fusion partner of the oncoprotein); expressed in transfected cells; host or cells: Ba/F3 (lentiviral transduction, monoclonal line)
In short: as §1

With `CC(=O)N[C@H]1CCC2c3cc(C(=O)Nc4ccc(OC(F)(F)Cl)cc4)cc(-c4cnc5c(c4)C(=O)N(C)C5)c3N(C(C)C)C21` (stereo partly drawn) [T-11-A, (3S)-3-acetamido-N-(4-(chlorodifluoromethoxy)phenyl)-4-isopropyl-5-(6-methyl-5-oxo-6,7-dihydro-5H-pyrrolo[3,4-b]pyridin-3-yl)-1,2,3,3a,4,8b-hexahydrocyclopenta[b]indole-7-carboxamide] the IC50 (K562 cells) was 50 to 1000 nM, the IC50 (Ba/F3 parental cells) was greater than 1000 nM and the IC50 (Ba/F3 BCR-ABL1 T315M) was greater than 1000 nM. It also gave an IC50 (Ba/F3 BCR-ABL1 WT) of 50 to 1000 nM and an IC50 (Ba/F3 BCR-ABL1 T315I) greater than 1000 nM.
For `CC1(C)C(=O)Nc2cc(C(=O)Nc3ccc(OC(F)(F)Cl)cc3)cc(-c3cnc4c(c3)-c3n[nH]cc3C4)c21` [T-122, N-(4-(chlorodifluoromethoxy)phenyl)-4-(2,4-dihydropyrazolo[3',4':3,4]cyclopenta[1,2-b]pyridin-7-yl)-3,3-dimethyl-2-oxoindoline-6-carboxamide], the IC50 (K562 cells) was no more than 5 nM, the IC50 (Ba/F3 parental cells) was greater than 1000 nM and the IC50 (Ba/F3 BCR-ABL1 WT) was no more than 5 nM. The IC50 (Ba/F3 BCR-ABL1 T315I) was 5 to 50 nM.
With `CC1(C)C(=O)Nc2cc(C(=O)Nc3ccc(OC(F)(F)Cl)cc3)cc(-c3cnc4c(c3)-c3nn(-c5ncccn5)cc3C4)c21` [T-123, N-(4-(chlorodifluoromethoxy)phenyl)-3,3-dimethyl-2-oxo-4-(2-(pyrimidin-2-yl)-2,4-dihydropyrazolo[3',4':3,4]cyclopenta[1,2-b]pyridin-7-yl)indoline-6-carboxamide] the IC50 (K562 cells) was no more than 5 nM, the IC50 (Ba/F3 parental cells) was greater than 1000 nM and the IC50 (Ba/F3 BCR-ABL1 WT) was no more than 5 nM. The IC50 (Ba/F3 BCR-ABL1 T315I) was no more than 5 nM.
For `CC1(C)C(=O)Nc2cc(C(=O)Nc3ccc(OC(F)(F)Cl)cc3)cc(-c3cnc4c(c3)-c3nn(-c5ncc(F)cn5)cc3C4)c21` [T-124, N-(4-(chlorodifluoromethoxy)phenyl)-4-(2-(5-fluoropyrimidin-2-yl)-2,4-dihydropyrazolo[3',4':3,4]cyclopenta[1,2-b]pyridin-7-yl)-3,3-dimethyl-2-oxoindoline-6-carboxamide], the IC50 (K562 cells) was no more than 5 nM, the IC50 (Ba/F3 parental cells) was greater than 1000 nM and the IC50 (Ba/F3 BCR-ABL1 WT) was no more than 5 nM. For the same compound, the IC50 (Ba/F3 BCR-ABL1 T315I) was no more than 5 nM.
`O=C(Nc1ccc(OC(F)(F)Cl)cc1)c1cc2c(c(-c3cnc4c(c3)-c3n[nH]cc3C4)c1)C1(CCCCC1)C(=O)N2` [T-125, N-(4-(chlorodifluoromethoxy)phenyl)-4'-(2,4-dihydropyrazolo[3',4':3,4]cyclopenta[1,2-b]pyridin-7-yl)-2'-oxospiro[cyclohexane-1,3'-indoline]-6'-carboxamide] showed an IC50 (K562 cells) of no more than 5 nM, an IC50 (Ba/F3 parental cells) greater than 1000 nM and an IC50 (Ba/F3 BCR-ABL1 WT) of no more than 5 nM. For the same compound, the IC50 (Ba/F3 BCR-ABL1 T315I) was 5 to 50 nM.
With `O=C(Nc1ccc(OC(F)(F)Cl)cc1)c1cc2c(c(-c3cnc4c(c3)-c3nn(-c5ncccn5)cc3C4)c1)C1(CCCCC1)C(=O)N2` [T-126, N-(4-(chlorodifluoromethoxy)phenyl)-4'-(2-(pyrimidin-2-yl)-2,4-dihydropyrazolo[3',4':3,4]cyclopenta[1,2-b]pyridin-7-yl)-2'-oxospiro[cyclohexane-1,3'-indoline]-6'-carboxamide] the IC50 (K562 cells) was no more than 5 nM, the IC50 (Ba/F3 parental cells) was greater than 1000 nM and the IC50 (Ba/F3 BCR-ABL1 WT) was no more than 5 nM. It also gave an IC50 (Ba/F3 BCR-ABL1 T315I) of no more than 5 nM.
Work on `O=C(Nc1ccc(OC(F)(F)Cl)cc1)c1cc2c(c(-c3cnc4c(c3)-c3nn(-c5ncc(F)cn5)cc3C4)c1)C1(CCCCC1)C(=O)N2` [T-127, N-(4-(chlorodifluoromethoxy)phenyl)-4'-(2-(5-fluoropyrimidin-2-yl)-2,4-dihydropyrazolo[3',4':3,4]cyclopenta[1,2-b]pyridin-7-vl)-2'-oxospiro[cyclohexane-1,3'-indoline]-6'-carboxamide] yielded an IC50 (K562 cells) of no more than 5 nM, an IC50 (Ba/F3 parental cells) greater than 1000 nM and an IC50 (Ba/F3 BCR-ABL1 WT) of no more than 5 nM. For the same compound, the IC50 (Ba/F3 BCR-ABL1 T315I) was no more than 5 nM.
`N#Cc1cnc(-n2cc3c(n2)-c2cc(-c4cc(C(=O)Nc5ccc(OC(F)(F)Cl)cc5)cnc4N4CC[C@@H](F)C4)cnc2C3)nc1` [T-128, (R)-N-(4-(chlorodifluoromethoxy)phenyl)-5-(2-(5-cyanopyrimidin-2-yl)-2,4-dihydropyrazolo[3',4':3,4]cyclopenta[1,2-b]pyridin-7-yl)-6-(3-fluoropyrrolidin-1-yl)nicotinamide] showed an IC50 (K562 cells) of no more than 5 nM, an IC50 (Ba/F3 parental cells) greater than 1000 nM and an IC50 (Ba/F3 BCR-ABL1 WT) of no more than 5 nM. It also gave an IC50 (Ba/F3 BCR-ABL1 T315I) of no more than 5 nM.
`N#Cc1ccnc(-n2cc3c(n2)-c2cc(-c4cc(C(=O)Nc5ccc(OC(F)(F)Cl)cc5)cnc4N4CC[C@@H](F)C4)cnc2C3)n1` [T-129, (R)-N-(4-(chlorodifluoromethoxy)phenyl)-5-(2-(4-cyanopyrimidin-2-yl)-2,4-dihydropyrazolo[3',4':3,4]cyclopenta[1,2-b]pyridin-7-yl)-6-(3-fluoropyrrolidin-1-yl)nicotinamide] showed an IC50 (K562 cells) of no more than 5 nM, an IC50 (Ba/F3 parental cells) greater than 1000 nM and an IC50 (Ba/F3 BCR-ABL1 WT) of no more than 5 nM. It also gave an IC50 (Ba/F3 BCR-ABL1 T315I) of no more than 5 nM.
Compound `O=C(Nc1ccc(OC(F)(F)Cl)cc1)c1cnc(N2CC[C@@H](F)C2)c(-c2cnc3c(c2)-c2nn(-c4ncc(F)cn4)cc2C3F)c1` (stereo partly drawn) [T-130, N-(4-(chlorodifluoromethoxy)phenyl)-5-(4-fluoro-2-(5-fluoropyrimidin-2-yl)-2,4-dihydropyrazolo[3',4':3,4]cyclopenta[1,2-b]pyridin-7-yl)-6-((R)-3-fluoropyrrolidin-1-yl)nicotinamide] has an IC50 (K562 cells) of no more than 5 nM, an IC50 (Ba/F3 parental cells) greater than 1000 nM and an IC50 (Ba/F3 BCR-ABL1 WT) of no more than 5 nM. The IC50 (Ba/F3 BCR-ABL1 T315I) was no more than 5 nM.
In the case of `O=C(Nc1ccc(OC(F)(F)Cl)cc1)c1cnc(N2CC[C@@H](F)C2)c(-c2cnc3c(c2)-c2c(cnn2-c2ncc(F)cn2)C3F)c1` (stereo partly drawn) [T-131, N-(4-(chlorodifluoromethoxy)phenyl)-5-(4-fluoro-1-(5-fluoropyrimidin-2-yl)-1,4-dihydrepyrazolo[3',4':3,4]cyclopenta[1,2-b]pyridin-7-yl)-6-((R)-3-fluoropyrrolidin-1-yl)nicotinamide], the IC50 (K562 cells) is reported as 5 to 50 nM, the IC50 (Ba/F3 parental cells) is reported as greater than 1000 nM and the IC50 (Ba/F3 BCR-ABL1 WT) is reported as 50 to 1000 nM. It also gave an IC50 (Ba/F3 BCR-ABL1 T315I) of 50 to 1000 nM.
With `Nc1nc(N2CC[C@@H](F)C2)c(-c2cnc3c(c2)-c2nn(-c4ncc(F)cn4)cc2C3)cc1C(=O)Nc1ccc(OC(F)(F)Cl)cc1` [T-132, (R)-2-amino-N-(4-(chlorodifluoromethoxy)phenyl)-5-(2-(5-fluoropyrimidin-2-yl)-2,4-dihydropyrazolo[3',4':3,4]cyclopenta[1,2-b]pyridin-7-yl)-6-(3-fluoropyrrolidin-1-yl)nicotinamide] the IC50 (K562 cells) was no more than 5 nM, the IC50 (Ba/F3 parental cells) was 50 to 1000 nM and the IC50 (Ba/F3 BCR-ABL1 WT) was no more than 5 nM. The IC50 (Ba/F3 BCR-ABL1 T315I) was no more than 5 nM.
`N#Cc1ccnc(-n2cc3c(n2)-c2cc(-c4cc(C(=O)Nc5ccc(OC(F)(F)Cl)cc5)c(N)nc4N4CC[C@@H](F)C4)cnc2C3)n1` [T-133, (R)-2-amino-N-(4-(chlorodifluoromethoxy)phenyl)-5-(2-(4-cvanopyrimidin-2-yl)-2,4-dihydropyrazolo[3',4':3,4]cyclopenta[1,2-b]pyridin-7-yl)-6-(3-fluoropyrrolidin-1-yl)nicotinamide] showed an IC50 (K562 cells) of no more than 5 nM, an IC50 (Ba/F3 parental cells) greater than 1000 nM and an IC50 (Ba/F3 BCR-ABL1 WT) of no more than 5 nM. It also gave an IC50 (Ba/F3 BCR-ABL1 T315I) of no more than 5 nM.
Work on `N#Cc1cnc(-n2cc3c(n2)-c2cc(-c4cc(C(=O)Nc5ccc(OC(F)(F)Cl)cc5)c(N)nc4N4CC[C@@H](F)C4)cnc2C3)nc1` [T-134, (R)-2-amino-N-(4-(chlorodifluoromethoxy)phenyl)-5-(2-(5-cyanopyrimidin-2-yl)-2,4-dihydropyrazolo[3',4':3,4]cyclooenta[1,2-b]pyridin-7-yl)-6-(3-fluoropyrrolidin-1-yl)nicotinamide] yielded an IC50 (K562 cells) of no more than 5 nM, an IC50 (Ba/F3 parental cells) of 50 to 1000 nM and an IC50 (Ba/F3 BCR-ABL1 WT) of no more than 5 nM. The IC50 (Ba/F3 BCR-ABL1 T315I) was 50 to 1000 nM.
